# Assay results as given in US10570117B2, “Phenylimidazole compound” (Otsuka Pharmaceutical Factory, Inc., priority 2015, dated 2020).
# Where two headings read alike, the source gives them in different places.
# Assays:
# [1] = Solubility in gastric juice or intestinal juice model fluid (precipitation method using DMSO); assay type: physicochemical; conditions: room temperature
# Outline: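 Compound in DMSO added to JP disintegration test fluid 1 (pH 1.2) or fluid 2 (pH 6.8) and shaken 24 h at room temperature. After filtration, dissolved concentration (μg/mL) determined by UV absorbance against compound calibration curves.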
# [2] = tested on: lipoprotein lipase (LPL) gene; experiment: LPL mRNA elevating action (RT-PCR quantification of LPL mRNA in C2Cl2 cells); assay type: cell-based, mouse; conditions: Mus musculus, 24 h, compound 10 μM, ratio relative to the amount of LPL mRNA in cells with DMSO only, read-out: Rate of increase in LPL mRNA
# Outline: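 Mouse striated-muscle C2Cl2 cells in DMEM with 10% FBS exposed to compounds at 10 μM for 24 h. LPL mRNA quantified by RT-PCR and real-time PCR (20 cycles), expressed as ratio to DMSO-only cells set at 1.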
# [3] = pH 1.2, simulated gastric fluid, kinetic from dmso stock, 1st fluid for Disintegration Test of Japanese Pharmacopoeia (pH: 1.2), read-out: Solubility (μg/mL) 1st fluid
# [4] = pH 6.8, kinetic from dmso stock, 2nd fluid for Disintegration Test of Japanese Pharmacopoeia (pH: 6.8), read-out: Solubility (μg/mL) 2nd fluid
"solubility at 24 h [1, 3]","solubility at 24 h [1, 4]",melting point,SMILES,fold induction at 10 µM [2]
9.7 µg/mL,9.3 µg/mL,150 to 152 °C,COc1cc(OCc2ncc(C(F)(F)F)cc2F)ccc1-c1[nH]c(-c2ccc(F)nc2)nc1Cl [Example 281],3.36
106 µg/mL,1.9 µg/mL,145 to 148 °C,COc1cc(OCc2ccc(C(F)(F)F)cn2)ccc1-c1c(C)nc(-c2ccc(Cl)nc2)n1CC1CC1 [Example 157],4.05
5.5 µg/mL,0.9 µg/mL,186 to 188 °C,COc1cc(OCc2ccc(C(F)(F)F)cn2)ccc1-c1nc(-c2ccc(Cl)nc2)[nH]c1Br [Example 225],2.8
89.6 µg/mL,22.4 µg/mL,105 to 110 °C,COc1cc(-c2cnc(C3CC(F)(F)C3)[nH]2)ccc1OCc1ncc(C(F)(F)F)cc1F [Example 348],1.76
50.2 µg/mL,0.9 µg/mL,234 to 239 °C,COc1cc(OCc2ccc(C(F)(F)F)[n+]([O-])c2)ccc1-c1cnc(-c2ccc(F)nc2)[nH]1 [Example 314],1.66
